Read-outs that look alike come from different tables or passages of the source.
Tests used:
[1] = system: bone marrow parent cells of the mouse; assay: CSF-induced proliferation of bone marrow parent cells, in vitro; format: cell-based; settings: recombinant murine GM-CSF, 7 days
Method: Bone marrow cells are flushed out of the femur of mice. 10^5 cells are incubated in McCoy SA medium (0.3% agar) together with recombinant murine GM-CSF (Genzyme; parent cell colony formation) and the substances (10^-4 to 100 μg/ml) at 37° C. and 7% CO2. 7 days later, the colonies ([…]) and clusters (17-50 cells) are counted.

B 16 F 10 = assay: Growth inhibition test (MTT) for cytotoxic properties; format: cell-based, mouse; settings: Table 1b
Method in brief: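 Cells in RPMI 1640 with 10% FCS pre-cultured 1 day at 37° C, then exposed to test substances in DMSO; growth checked after day 3 and day 6. Read-out by MTT, 5 h incubation, isopropanol solubilization, extinction at 540 nm.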

SW 480 = assay: as above; format: cell-based, human
Method in brief: (§1)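 IC50 values come from an MTT read at 540 nm (5 h at 37 °C, 5 mg/ml MTT stock), taken on day 3 and day 6. Cells (HT 29, SW 480; 50,000 cells/ml in RPMI/10% FCS) were pre-cultured 1 day, then compound in DMSO was added.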

HT 29 = assay: as above; format: cell-based, human
Method in brief: as §1

B16F10 tumour = assay: In vivo test, survival of mice with transplanted B16F10 tumour; design: species or system mouse; settings: treated daily
Method: Mice are inoculated with 5×10^6 B16F10 tumour cells on day 0. The animals in which tumour cells are transplanted develop solid peritoneal tumours and are then treated daily with test substances or with the vehicle control. In the control group, 50% of the animals usually die between day 14 and 20. The test substances are administered in buffer or an organic solvent system comprising 20% methanol and 20% dimethyl sulphoxide in 0.7% sodium chloride solution.
The therapeutic result arises from the prolonging of the survival time of the treated animals. […] A therapeutic index can be estimated from the tolerance and prolonging of the survival time.

SW-480 [2] = assay: Cleavage kinetics with cells (HPLC); settings: Table 2a; 37° C.; * = cleavage product is N-[D-alanyl]-batracyline
Method: Cleavage Kinetics With Cells
(§2) 2.25 ml of PBS are incubated together with 225 μl of a cell suspension (30 mg/ml) and 25 μl of substrate stock solution (1 mg/ml in 3% dimethyl sulphoxide in PBS) at 37° C. After 1 hour and 24 hours, samples of in each case 1 ml are taken, mixed with 1 ml of ethanol and left to stand at 4° C. for 20 minutes. After centrifugation (5 minutes at 3500 rpm), 100 μl of supernatant are taken for the HPLC analysis.

[3] = Acute toxicity, single administration; format: in vivo, nu/nu naked mice; settings: for acute toxicity detected: dose of 400 mg/kg; for acute toxicity detected / individual dose of the substances which can be tolerated: single administration; for Individual dose tolerated in mg/kg of mouse, i.v.: aqueous solution; for Individual dose tolerated in mg/kg of mouse, i.p.: single administration i.p., solution in dimethyl sulphoxide
Method: Determination of the Acute Toxicity of Glycoconjugates of Batracyline (Single Administration)
The acute toxicity of the batracyline derivatives was determined on nu/nu naked mice.
The substances administered i.v., as aqueous solutions, and the substances administered i.p., as solutions in dimethyl sulphoxide, were injected once in concentrations of up to 400 mg of substance per kg of mouse.
The individual dose tolerated was calculated from the decrease in the weight of the animals up to 21 days after administration and from the number of animals surviving.

hepatoma [4] = assay: Cleavage kinetics with cells (HPLC); settings: Table 2a; 37° C.; * = cleavage product is N-[D-alanyl]-batracyline
Method: Cleavage Kinetics With Cells
as §2

hepatoma [5] = system: hepatoma
Method: Cleavage Kinetics With Cells
as §2

[6] = Cleavage kinetics with human blood (HPLC); format: in vitro ADME; settings: 37° C.
Source text: In Vitro Investigation of the Cleavability of the Glycoconjugates
Cleavage Kinetics With Human Blood

SW-480 [7] = system: SW-480
Method: Cleavage Kinetics With Cells
as §2

[8] = Table 1a, glycoconjugates of batracyline
[9] = Table 2a, * = cleavage product is N-[D-alanyl]-batracyline

Row | % cleavage in hepatoma 1 hour (hepatoma [5]) | % cleavage in hepatoma 24 hours (hepatoma [5]) | % cleavage in human blood 1 hour [6, 9] | % cleavage in human blood 24 hours [6, 9] | % cleavage in SW-480 1 hour (SW-480 [7]) | % cleavage in SW-480 24 hours (SW-480 [7]) | Compound | % cleavage in SW-480 1 hour (SW-480 [2]) | % cleavage in hepatoma 1 hour (hepatoma [4]) | IC50 (SW 480; [8]) | IC50 (HT 29; [8]) | other results
1 | – | – | – | – | – | – | COC1C(O)C(C)OC(Oc2ccc(NC(=S)NC(CCCCN)C(=O)NC3C=CC(C)C4CN(c5cc6c(cc5F)c(=O)c(C(=O)O)c5scc(C)n56)CC34)cc2)C1O.Cl (mixture of isomers) [Example 14.4, N-{N^α -[O-(3-O-Methyl-β-L-fucopyranosyl)-4-hydroxy-phenylamino-thiocarbonyl]-D-lysyl}-quinolone-c, hydrochloride] | – | – | – | – | IC50 [μg/ml] CSF-induced proliferation of bone marrow parent cells of the mouse [1]: 3.6 µg/mL; IC50 (B 16 F 10): 0.4 µM; IC50 (SW 480; Table 1b): 1.5 µM; IC50 (HT 29; Table 1b): 1 µM
2 | – | – | – | – | – | – | COc1cc([C@@H]2c3cc4c(cc3[C@@H](O[C@@H]3O[C@@H]5CO[C@@H](C)O[C@H]5[C@H](O)[C@H]3O)[C@H]3COC(=O)[C@H]23)OCO4)cc(OC)c1O [Etoposide, reference compound] | – | – | – | – | % survivors Day 0 (B16F10 tumour; 5 mg/kg): 100%; % survivors Day 20 (B16F10 tumour; 5 mg/kg): 90%; % survivors Day 25 (B16F10 tumour; 5 mg/kg): 80%; % survivors Day 30 (B16F10 tumour; 5 mg/kg): 80%; % survivors Day 35 (B16F10 tumour; 5 mg/kg): 70%
3 | – | – | – | – | – | – | CC(NC(=O)C(CCCCNC(=S)Nc1ccc(OC2OC(C)C(O)C(OCC(=O)[O-])C2O)cc1)NC(=S)Nc1ccc(OC2OC(C)C(O)C(OCC(=O)[O-])C2O)cc1)C(=O)Nc1ccc2nc3n(c(=O)c2c1)Cc1ccccc1-3.[Na+].[Na+] [Example 6.12, N-{N^α,N^ε -Bis-[O-(3-O-carboxymethyl-β-L-fucosyl)-4-hydroxy-phenylamino-thiocarbonyl]-lysyl-D-alanyl}-batracyline, di-sodium salt] | 0% | 0% | 35 µM | 50 µM | % cleavage in SW-480 24 hours (SW-480 [2]): 0%; acute toxicity detected [3]: no acute toxicity; individual dose of the substances which can be tolerated [3]: more than 200 mg of substance per kg of mouse; Individual dose tolerated in mg/kg of mouse, i.v. ([3]; single administration i.v.): > 400 mg/kg of mouse; % cleavage in hepatoma 24 hours (hepatoma [4]): 0%
4 | 0% | 0% | 0% | 0% | 0% | 0% | CC(NC(=O)C(CO)NC(=S)Nc1ccc(OC2OC(C)C(O)C(O)C2O)cc1)C(=O)Nc1ccc2c(c1)Cn1c-2nc2ccccc2c1=O [Example 7.3, N-{N-[O-(β-L-Fucosyl)-4-hydroxy-phenylamino-thiocarbonyl]-seryl-D-alanyl]-batracyline] | – | – | 50 µM | – | –
5 | 0% | 0% | – | – | 0% | 0% | CO[C@H]1[C@H](O)[C@@H](Oc2ccc(NC(=S)NCCCC[C@H](NC(=S)Nc3ccc(O[C@H]4O[C@@H](C)[C@@H](O)[C@@H](OC)[C@@H]4O)cc3)C(=O)N[C@@H](C)C(=O)NC3C=CCC4CN(c5c(F)cc6c(=O)c(C(=O)O)cn(C7CC7)c6c5Cl)CC43)cc2)O[C@@H](C)[C@H]1O (stereo partly drawn) [Example 11.2, N-{N^α,N^ε -Bis-[O-(3-O-methyl-β-L-fucosyl)-4-hydroxy-phenylamino-thiocarbonyl]-lysyl-alanyl}-quinolone-a] | – | – | – | – | IC50 [μg/ml] CSF-induced proliferation of bone marrow parent cells of the mouse [1]: 22.5 µg/mL; % cleavage in human blood 1 hour ([6]; Table 2b): 0%; % cleavage in human blood 24 hours ([6]; Table 2b): 0%; IC50 (B 16 F 10): 9 µM; IC50 (SW 480; Table 1b): 30 µM
6 | 0% | 12% | – | – | 0% | 8% | CO[C@H]1[C@H](O)[C@@H](Oc2ccc(NC(=S)NCCCC[C@H](NC(=S)Nc3ccc(O[C@H]4O[C@@H](C)[C@@H](O)[C@@H](OC)[C@@H]4O)cc3)C(=O)NC3C=CCC4CN(c5c(F)cc6c(=O)c(C(=O)O)cn(C7CC7)c6c5Cl)CC43)cc2)O[C@@H](C)[C@H]1O (stereo partly drawn) [Example 11.6, N-{N^α,N^ε -Bis-[O-(3-O-methyl-β-L-fucosyl)-4-hydroxy-phenylamino-thiocarbonyl]-lysyl}-quinolone-a] | – | – | – | – | % cleavage in human blood 1 hour ([6]; Table 2b): 0%; % cleavage in human blood 24 hours ([6]; Table 2b): 11%; IC50 (B 16 F 10): 5 µM; IC50 (SW 480; Table 1b): 8 µM; IC50 (HT 29; Table 1b): 9 µM
7 | – | – | – | – | – | – | CO[C@H]1[C@H](O)[C@@H](Oc2ccc(NC(=S)NCCCC[C@@H](NC(=S)Nc3ccc(O[C@H]4O[C@@H](C)[C@@H](O)[C@@H](OC)[C@@H]4O)cc3)C(=O)NC3C=CCC4CN(c5c(F)cc6c(=O)c(C(=O)[O-])cn(C7CC7)c6c5Cl)CC43)cc2)O[C@@H](C)[C@H]1O.[Na+] (stereo partly drawn) [Example 11.12, N-{N^α,N^ε -Bis-[O-(3-O-methyl-β-L-fucosyl)-4-hydroxy-phenylamino-thiocarbonyl]-D-lysyl}-quinolone-a, sodium salt] | – | – | – | – | % survivors Day 0 (B16F10 tumour; 1 mg/kg): 100%; % survivors Day 20 (B16F10 tumour; 1 mg/kg): 90%; % survivors Day 25 (B16F10 tumour; 1 mg/kg): 60%; % survivors Day 30 (B16F10 tumour; 1 mg/kg): 30%; % survivors Day 35 (B16F10 tumour; 1 mg/kg): 30%; % survivors Day 0 (B16F10 tumour; 100 mg/kg): 100%; % survivors Day 20 (B16F10 tumour; 100 mg/kg): 100%; % survivors Day 25 (B16F10 tumour; 100 mg/kg): 100%; % survivors Day 30 (B16F10 tumour; 100 mg/kg): 90%; % survivors Day 35 (B16F10 tumour; 100 mg/kg): 90%
8 | 0% | 0% | 0% | 0% | 0% | 0% | N-{N^α -[O-(3-O-Carboxymethyl-β-L-fucosyl)-4-hydroxyphenylaminothiocarbonyl] -N^α -[acetyl]-lysyl-D-alanyl batracyline [Example 5.9] | – | – | 70 µM | 70 µM | –
9 | 0% | 0% | 0% | 0% | 0% | 0% | N-{N^α -[O-(4-O-Methyl-β-L-fucosyl)-4-hydroxy-phenylamino-thiocarbonyl]-lysy l-D-alanyl}-batracyline [Example 4.4] | – | – | 30 µM | 25 µM | –
10 | – | – | – | – | – | – | N-{N^α,N^ε -Bis-[O-(3-O-methyl-β-L-fucosyl)-4-hydroxy-phenylamino-thiocarbonyl]- lysyl-D-alanyl}-batracyline [Example 6.2] | 0% | 0% | 40 µM | 50 µM | % cleavage in SW-480 24 hours (SW-480 [2]): 0%; acute toxicity detected [3]: no acute toxicity; individual dose of the substances which can be tolerated [3]: more than 200 mg of substance per kg of mouse; Individual dose tolerated in mg/kg of mouse, i.p. [3]: > 400 mg/kg of mouse; % cleavage in hepatoma 24 hours (hepatoma [4]): 0%
11 | – | – | – | – | – | – | N-{N^ε -[O-(3-O-Methyl-β-L-fucosyl)-4-hydroxy-phenylamino-thiocarbonyl]-lysy l-D-alanyl}-batracyline, trifluoroacetate [Example 3.4] | 74% | 98% | 100 µM | 65 µM | Individual dose tolerated in mg/kg of mouse, i.p. [3]: 200 mg/kg of mouse; animals died ([3]; single administration i.v.): 2; Individual dose tolerated in mg/kg of mouse, i.v. ([3]; single administration i.v.): < 100 mg/kg of mouse

Row | Compound | % cleavage in hepatoma 1 hour (hepatoma [5]) | % cleavage in hepatoma 24 hours (hepatoma [5]) | % cleavage in human blood 1 hour [6, 9] | % cleavage in human blood 24 hours [6, 9] | % cleavage in SW-480 1 hour (SW-480 [7]) | % cleavage in SW-480 24 hours (SW-480 [7]) | % cleavage in SW-480 1 hour (SW-480 [2]) | % cleavage in hepatoma 1 hour (hepatoma [4]) | IC50 (SW 480; [8]) | IC50 (HT 29; [8]) | other results
12 | N-{N^ε -[O-(3-O-Carboxymethyl-β-L-fucosyl)-4-hydroxy-phenylamino-thiocarbony l]-lysyl-D-alanyl}-batracyline, sodium salt [Example 3.9] | – | – | 0% | 54% | – | – | 28% | 32% | 40 µM | 55 µM | % cleavage in SW-480 24 hours (SW-480 [2]): 100%; individual dose of the substances which can be tolerated [3]: more than 200 mg of substance per kg of mouse; Individual dose tolerated in mg/kg of mouse, i.p. [3]: 200 mg/kg of mouse; Individual dose tolerated in mg/kg of mouse, i.v. ([3]; single administration i.v.): 200 mg/kg of mouse; % cleavage in hepatoma 24 hours (hepatoma [4]): 100%

Source: US6271342A, “Sugar-modified cytostatics” (Bayer Aktiengesellschaft, priority 1995, dated 2001)
